Assay results taken from ChEMBL document CHEMBL3865818, “4,5-Diaryl-3H-1,2-dithiole-3-thiones and related compounds as combretastatin A-4/oltipraz hybrids: Synthesis, molecular modelling and evaluation as antiproliferative agents and inhibitors of tubulin” (Eur J Med Chem, 2016).
Calls of active or inactive are those of the source. The calls are words filed in the database; no cut-off is given here.

Assays:
[1] = Cell cycle arrest in human KB cells assessed as accumulation at SubG1-phase at 0.05 uM measured after 12 hrs by propidium iodide staining-based flow cytometry (reference value: 1.23%); assay type: functional
[2] = Cell cycle arrest in human KB cells assessed as accumulation at G2/M-phase at 0.05 uM measured after 12 hrs by propidium iodide staining-based flow cytometry (reference value: 30.19%); assay type: functional
[3] = Cell cycle arrest in human KB cells assessed as accumulation at S-phase at 0.05 uM measured after 24 hrs by propidium iodide staining-based flow cytometry (reference value: 16.96%); assay type: functional
[4] = Cell cycle arrest in human KB cells assessed as accumulation at G0/G1-phase at 0.05 uM measured after 36 hrs by propidium iodide staining-based flow cytometry (reference value: 51.51%); assay type: functional
[5] = Cell cycle arrest in human KB cells assessed as accumulation at S-phase at 0.05 uM measured after 36 hrs by propidium iodide staining-based flow cytometry (reference value: 16.51%); assay type: functional
[6] = Cell cycle arrest in human KB cells assessed as accumulation at G2/M-phase at 0.05 uM measured after 36 hrs by propidium iodide staining-based flow cytometry (reference value: 27.34%); assay type: functional
[7] = Cell cycle arrest in human KB cells assessed as accumulation at SubG1-phase at 0.05 uM measured after 48 hrs by propidium iodide staining-based flow cytometry (reference value: 0.61%); assay type: functional
[8] = Cell cycle arrest in human KB cells assessed as accumulation at G0/G1-phase at 0.05 uM measured after 48 hrs by propidium iodide staining-based flow cytometry (reference value: 58.26%); assay type: functional
[9] = Cell cycle arrest in human KB cells assessed as accumulation at G0/G1-phase at 0.05 uM measured after 60 hrs by propidium iodide staining-based flow cytometry (reference value: 63.85%); assay type: functional
[10] = Cell cycle arrest in human KB cells assessed as accumulation at SubG1-phase at 0.1 uM measured after 12 hrs by propidium iodide staining-based flow cytometry (reference value: 1.23%); assay type: functional
[11] = Cell cycle arrest in human KB cells assessed as accumulation at S-phase at 0.1 uM measured after 12 hrs by propidium iodide staining-based flow cytometry (reference value: 15.5%); assay type: functional
[12] = Cell cycle arrest in human KB cells assessed as accumulation at G2/M-phase at 0.1 uM measured after 24 hrs by propidium iodide staining-based flow cytometry (reference value: 28.84%); assay type: functional
[13] = Cell cycle arrest in human KB cells assessed as accumulation at SubG1-phase at 0.1 uM measured after 36 hrs by propidium iodide staining-based flow cytometry (reference value: 0.63%); assay type: functional
[14] = Cell cycle arrest in human KB cells assessed as accumulation at S-phase at 0.1 uM measured after 36 hrs by propidium iodide staining-based flow cytometry (reference value: 16.51%); assay type: functional
[15] = Cell cycle arrest in human KB cells assessed as accumulation at G0/G1-phase at 0.1 uM measured after 48 hrs by propidium iodide staining-based flow cytometry (reference value: 58.26%); assay type: functional
[16] = Cell cycle arrest in human KB cells assessed as accumulation at G2/M-phase at 0.1 uM measured after 48 hrs by propidium iodide staining-based flow cytometry (reference value: 23.36%); assay type: functional
[17] = Cell cycle arrest in human KB cells assessed as accumulation at G2/M-phase at 0.1 uM measured after 60 hrs by propidium iodide staining-based flow cytometry (reference value: 18.9%); assay type: functional
[18] = Cell cycle arrest in human KB cells assessed as accumulation at G0/G1-phase at 0.2 uM measured after 12 hrs by propidium iodide staining-based flow cytometry (reference value: 48.26%); assay type: functional
[19] = Cell cycle arrest in human KB cells assessed as accumulation at SubG1-phase at 0.2 uM measured after 24 hrs by propidium iodide staining-based flow cytometry (reference value: 0.76%); assay type: functional
[20] = Cell cycle arrest in human KB cells assessed as accumulation at SubG1-phase at 0.2 uM measured after 36 hrs by propidium iodide staining-based flow cytometry (reference value: 0.63%); assay type: functional
[21] = Cell cycle arrest in human KB cells assessed as accumulation at G0/G1-phase at 0.2 uM measured after 36 hrs by propidium iodide staining-based flow cytometry (reference value: 51.51%); assay type: functional
[22] = Cell cycle arrest in human KB cells assessed as accumulation at SubG1-phase at 0.2 uM measured after 48 hrs by propidium iodide staining-based flow cytometry (reference value: 0.61%); assay type: functional
[23] = Cell cycle arrest in human KB cells assessed as accumulation at S-phase at 0.2 uM measured after 48 hrs by propidium iodide staining-based flow cytometry (reference value: 13.32%); assay type: functional
[24] = Cell cycle arrest in human KB cells assessed as accumulation at G2/M-phase at 0.2 uM measured after 48 hrs by propidium iodide staining-based flow cytometry (reference value: 23.36%); assay type: functional
[25] = Cell cycle arrest in human KB cells assessed as accumulation at G0/G1-phase measured after 12 hrs by propidium iodide staining-based flow cytometry (reference value: 48.26%); assay type: functional
[26] = Cell cycle arrest in human KB cells assessed as accumulation at G2/M-phase measured after 12 hrs by propidium iodide staining-based flow cytometry (reference value: 30.19%); assay type: functional
[27] = Cell cycle arrest in human KB cells assessed as accumulation at G0/G1-phase measured after 36 hrs by propidium iodide staining-based flow cytometry (reference value: 51.51%); assay type: functional
[28] = Cell cycle arrest in human KB cells assessed as accumulation at S-phase measured after 36 hrs by propidium iodide staining-based flow cytometry (reference value: 16.51%); assay type: functional
[29] = Cell cycle arrest in human KB cells assessed as accumulation at G0/G1-phase measured after 48 hrs by propidium iodide staining-based flow cytometry (reference value: 58.26%); assay type: functional
[30] = Cell cycle arrest in human KB cells assessed as accumulation at S-phase measured after 48 hrs by propidium iodide staining-based flow cytometry (reference value: 13.32%); assay type: functional
[31] = Cell cycle arrest in human KB cells assessed as accumulation at SubG1-phase measured after 60 hrs by propidium iodide staining-based flow cytometry (reference value: 1.24%); assay type: functional
[32] = Cell cycle arrest in human KB cells assessed as accumulation at G0/G1-phase measured after 60 hrs by propidium iodide staining-based flow cytometry (reference value: 63.85%); assay type: functional
[33] = Cell cycle arrest in human KB cells assessed as accumulation at G2/M-phase measured after 60 hrs by propidium iodide staining-based flow cytometry (reference value: 18.9%); assay type: functional
[34] = Cell cycle arrest in human KB cells assessed as increase in subG1-peak at 0.2 uM by propidium iodide staining-based flow cytometry; assay type: functional; details: TDE = time-dependent effect
KB [35] = assay: Inhibition of alpha-tubulin in human KB cells assessed as disruption of microtubule formation at 0.2 uM by DAPI staining-based immunofluorescence assay; assay type: cell-based
KB [36] = assay: Inhibition of alpha-tubulin in human KB cells assessed as induction of mitotic catastrophe by measuring multiple micronuclei formation at 0.2 uM by DAPI staining-based immunofluorescence assay; assay type: cell-based

COc1ccc(-c2ssc(=O)c2-c2cc(OC)c(OC)c(OC)c2)cc1N
Activity [1]: 7.09%
Activity [2]: 30.5%
Activity [3]: 15.5%
Activity [4]: 50.3%
Activity [5]: 11.7%
Activity [6]: 23%
Activity [7]: 15.8%
Activity [8]: 50.9%
Activity [9]: 37.8%
Activity [10]: 2.67%
Activity [11]: 21.6%
Activity [12]: 41.8%
Activity [13]: 24.3%
Activity [14]: 14.5%
Activity [15]: 15.5%
Activity [16]: 22.6%
Activity [17]: 10%
Activity [18]: 1.63%
Activity [19]: 11.1%
Activity [20]: 33.2%
Activity [21]: 7.48%
Activity [22]: 49.9%
Activity [23]: 13.1%
Activity [24]: 19.4%
Activity [25]: 8.18%
Activity [26]: 64.4%
Activity [27]: 14.4%
Activity [28]: 25.4%
Activity [29]: 11.3%
Activity [30]: 12.6%
Activity [31]: 58.1%
Activity [32]: 6.81%
Activity [33]: 15.6%
Activity [34]: Tde
Activity (KB [35]): Active
Activity (KB [36]): Active
